# Like-named read-outs stand apart in the source and are kept apart here.
# Columns and labels:
# [1] = in vitro liver microsome metabolic stability, beagle dog; assay type: in vitro ADME; conditions: Beagle dog liver microsomes, 37°C
# Procedure: (§1) Preparation of working solutions for test compounds and standards: An appropriate amount of the compound was accurately weighed and dissolved in a corresponding volume of suitable solvent to prepare 1 mM stock solutions of the test compounds and standards. The stock solutions were then diluted with appropriate solvent to obtain 100 µM working solutions of the test compounds, ensuring that the DMSO content in the working solutions remained below 10%.
# (§2) The internal standard compound testosterone (or tolbutamide) and its corresponding solvent, internal standard concentration (200 ng/mL), were selected based on the properties of the test compound.
# (§3) • Solution A: 0.1 mol/L K2HPO4 (2.28 g K2HPO4·3H2O was dissolved in 100 mL of double-distilled water); • Solution B: 0.1 mol/L KH2PO4 (1.36 g KH2PO4 was dissolved in 100 mL of double-distilled water); • 80.2 mL of Solution A and 19.8 mL of Solution B were mixed thoroughly, and the pH was adjusted to 7.4.
# (§4) 37.5 mg of glycine was weighed, dissolved in 100 mL of ultrapure water, and adjusted to pH 8.0 with NaOH.
# (§5) 1.25 mg of glucose-6-phosphate dehydrogenase (400 U/mg) was weighed (the specific amount weighed was calculated based on the activity of the purchased glucose-6-phosphate dehydrogenase), dissolved in 1 mL of glycine buffer to a concentration of 500 U/mL, aliquoted into 20 µL per tube, and stored at -20°C for future use.
# (§6) 7.83 mg of NADP, 0.06 mL of D-glucose-6-phosphate (260 mg/mL), and 10.17 mg of MgCl2·6H2O were precisely weighed.
# (§7) The mixture was dissolved in 1 mL of pure water. The cofactor ratio composition: NADP 10 mM, D-glucose-6-phosphate 60 mM, MgCl2·6H2O 50 mM.
# (§8) The reaction system (taking a 500 µL system as an example) was composed of the following solution ratios: 416.5 µL phosphate buffer, 5 µL compound working solution, 25 µL liver microsomes, 3.5 µL glucose-6-phosphate dehydrogenase, and 50 µL cofactor solution. The total incubation volume could be adjusted according to experimental requirements.
# (§9) 416.5 µL of phosphate buffer was taken, 25 µL of liver microsomes, 3.5 µL of glucose-6-phosphate dehydrogenase, and 50 µL of cofactor solution were added, vortexed twice to mix, and preincubated in a 37°C water bath for 5 minutes. Then, 5 µL of the test compound working solution was added, vortexed twice to mix, each time for 2-3 seconds, and placed in a 37°C water bath to initiate the reaction, with two parallel samples set. At 0.5 min, 1 min, 2 min, 5 min, 15 min, and 30 min after the reaction, 50 µL of the mixture was taken and added to centrifuge tubes containing 200 µL of 0°C pre-cooled internal standard working solution to terminate the reaction, vortexed for 1 minute to mix, and centrifuged at 13,000 rpm for 10 minutes in a 4°C pre-cooled high-speed centrifuge. The supernatant was collected for analysis. After the compound was added and vortex-mixed, 50 µL of the mixture was rapidly transferred to a centrifuge tube containing 200 µL of a pre-cooled (0°C) internal standard working solution to terminate the reaction, vortex-mixed for 1 minute, and used as the relative zero-point sample (relative to the standard group). The sample was then placed into a 37°C water bath to initiate the reaction, and timing was started.
# (§10) The sample analysis of the test compound was performed using the liquid chromatography-tandem mass spectrometry (LCMS/MS) method. The semi-quantitative determination was performed using the ratio of the analyte peak area to the internal standard peak area. The retention times of the analyte and internal standard, chromatogram acquisition, and chromatogram integration were processed using Analyst software.
# (§11) The in vitro elimination rate constant k of the test compound and the control compound was determined by converting the ratio of the peak area of the test compound to the internal standard into the remaining rate, and T1/2 was then calculated according to the following formula. T1/2 = (Ln2)/(k) = (0.693)/(k) [formula] Table 3. […]
# [2] = in vivo pharmacokinetic study in SD rats; conditions: rat; for bioavailability: 1 mg/kg PO vs 1 mg/kg IV, read-out: Oral bioavailability F (%)
# Procedure: 2.2.1 Rats: SD rats, SPF grade, 6 rats per compound, male, body weight range 180-200 g.
# 2.2.2 Housing conditions: The animals were housed in an SPF-grade animal facility with free access to food and water, three per cage, under a 12/12-hour light/dark cycle (7:00 am/7:00 pm), at a temperature of 23 ± 3°C.
# 2.2.3 Drug preparation: The compound was precisely weighed, mixed with the required volume of 1% Tween 80, vortexed for 2 min, and then sonicated for 5 min until no visible particles remained. The mixture was subsequently stirred on a magnetic stirrer for 20 min, and the middle layer of the drug solution was collected for administration. For the IV group, the compound was accurately weighed, dissolved in the required volume of 50% PEG400, sonicated for 10 min, and vortexed until clear before administration.
# The rats were randomly divided into 2 groups based on body weight, with 3 rats per compound per group. Group 1 was administered a single oral gavage dose (fasted), and Group 2 was administered a single tail vein bolus injection. Blood collection time points: for the po group, blood was collected at 0.167 h, 0.5 h, 1 h, 2 h, 3 h, 4 h, 6 h, and 8 h; for the iv group, blood was collected at 0.033 h, 0.167 h, 0.5 h, 1 h, 2 h, 4 h, 6 h, and 8 h.
# After administration to the rats, blood was collected from the orbital venous plexus according to the sampling time points. Approximately 0.2-0.3 mL of blood was collected at each time point into anticoagulant EP tubes (containing 4 µL of EDTA-K2, 375 mg/mL, dried at 50°C). The tubes were slowly inverted up and down three times and stored in an ice box (for no more than 30 minutes). Centrifugation was performed at 4°C at 3000 × g for 10 minutes, and the supernatant was transferred to labeled EP tubes for bioanalytical testing. If testing could not be performed on the same day, the samples were stored at -80°C until analysis (care was taken to avoid multiple freeze/thaw cycles).
# The data were analyzed using WinNonlin via a non-compartmental model to obtain PK parameters (Cmax, AUC0-last, AUCinf, T1/2, etc., selected based on different routes of administration). For specific data, please refer to Table 2. Table 2. PK experimental results of compounds in SD rats
# [3] = in vitro liver microsome metabolic stability, rat; assay type: in vitro ADME; conditions: Rat liver microsomes, 37°C
# Procedure: as §1, §2, §3, §4, §5, §6, §7, §8, §9, §10, §11
# [4] = in vitro liver microsome metabolic stability, human; assay type: in vitro ADME; conditions: Human liver microsomes, 37°C
# Procedure: as §1, §2, §3, §4, §5, §6, §7, §8, §9, §10, §11
SMILES,Liver microsome T1-2 (min) Beagle dog [1] [min],Liver microsome T1-2 (min) Rat [3] [min],Liver microsome T1-2 (min) Human [4] [min],other results
CN(C)C(=O)c1nccc(Nc2c(NC(c3nc(C(F)(F)F)ccc3F)C3(C)CC(F)(F)CO3)c(=O)c2=O)c1O (centres unmarked) [compound 098],102.59,195.59,208.30,"bioavailability ([2]; in vivo): 21.6%; AUC(0-t) ([2]; in vivo, 1 mg/kg, IV): 630 ng·h/mL; Cmax ([2]; in vivo, 1 mg/kg, IV): 2740 ng/mL; AUC(0-t) ([2]; in vivo, 1 mg/kg, PO): 136 ng·h/mL; Cmax ([2]; in vivo, 1 mg/kg, PO): 102 ng/mL; half-life ([2]; in vivo, 1 mg/kg, PO): 2.74 h"
"Cc1cccnc1[C@H](Nc1c(Nc2ccnc(C(=O)N(C)C)c2O)c(=O)c1=O)[C@]1(C)CC(F)(F)CO1 (single isomer, unassigned) [128B]",222.45,216.24,158.82,"bioavailability ([2]; male, plasma): 36.7%; AUC(0-t) ([2]; male, plasma, 1 mg/kg, IV): 910 ng·h/mL; Cmax ([2]; male, plasma, 1 mg/kg, IV): 3270 ng/mL; AUC(0-t) ([2]; male, plasma, 1 mg/kg, PO): 334 ng·h/mL; Cmax ([2]; male, plasma, 1 mg/kg, PO): 182 ng/mL"
"CN(C)C(=O)c1nccc(Nc2c(N[C@@H](c3nc(C(F)F)ccc3F)C3(C)CC(F)(F)CO3)c(=O)c2=O)c1O (stereo partly drawn) [compound 097, 4-((2-(((1S)-(4,4-difluoro-2-methyltetrahydrofuran-2-yl)(6-(difluoromethyl)-3-fluoropyridin-2-yl)methyl)amino)-3,4-dioxocyclobut-1-en-1-yl)amino)-3-hydroxy-N,N-dimethylpicolinamide]",209.62,230.78,724.74,–
"CN(CC(F)(F)F)C(=O)c1nccc(Nc2c(N[C@@H](c3ccc(F)cn3)C3(C)CCCC3)c(=O)c2=O)c1O [compound 070, (R)-4-((2-(((5-fluoropyridin-2-yl)(1-methylcyclopentyl)methyl)amino)-3,4-dioxocyclobut-1-en-1-yl)amino)-3-hydroxy-N-methyl-N-(2,2,2-trifluoroethyl)picolinamide]",37.22,34.22,201.75,–
"Cc1nccnc1[C@H](Nc1c(Nc2ccnc(C(=O)N(C)C)c2O)c(=O)c1=O)C1(C)CCCC1 [compound 091, (R)-3-hydroxy-N,N-dimethyl-4-((2-(((1-methylcyclopentyl)(3-methylpyrazin-2-yl)methyl)amino)-3,4-dioxocyclobut-1-en-1-yl)amino)picolinamide]",338.24,72.62,717.09,–
"Cc1cccnc1C(Nc1c(Nc2ccc(Cl)c(C(=O)N(C)C)c2O)c(=O)c1=O)C1(C)CC(F)(F)CO1 (centres unmarked) [compound 080, 6-chloro-3-((2-(((4,4-difluoro-2-methyltetrahydrofuran-2-yl)(3-methylpyridin-2-yl)methyl)amino)-3,4-dioxocyclobut-1-en-1-yl)amino)-2-hydroxy-N, N-dimethylbenzamide]",1205.26,109.92,539.06,–
"Cc1cccnc1C(Nc1c(Nc2ccc(F)c(C(=O)N(C)C)c2O)c(=O)c1=O)[C@]1(C)CC(F)(F)CO1 (stereo partly drawn) [087A, 3-((2-((((S)-4,4-difluoro-2-methyltetrahydrofuran-2-yl)(3-methylpyridin-2-yl)methyl)amino)-3,4-dioxocyclobut-1-en-1-yl)amino)-6-fluoro-2-hydroxy-N,N-dimethylbenzamide]",431.98,120.46,511.03,–
"Cc1cccnc1[C@H](Nc1c(Nc2ccnc(C(=O)N(C)C)c2O)c(=O)c1=O)C1(C)CCCO1 (stereo partly drawn) [compound 082, 3-hydroxy-N,N-dimethyl-4-((2-(((1S)-(3-methylpyridin-2-yl)(2-methyltetrahydrofuran-2-yl)methyl)amino)-3,4-dioxocyclobut-1-en-1-yl)amino)picolinamide]",275.16,290.01,261.96,–
"Cc1cccnc1[C@H](Nc1c(Nc2ccc(Cl)c(C(=O)N(C)C)c2O)c(=O)c1=O)C1(C)CC(F)(F)C1 [compound 088, (R)-6-chloro-3-((2-(((3,3-difluoro-1-methylcyclobutyl)(3-methylpyridin-2-yl)methyl)amino)-3,4-dioxocyclobut-l-en-1-yl)amino)-2-hydroxy-N,N-dimethylbenzamide]",753.15,39.67,423.69,–
"Cc1cccnc1[C@H](Nc1c(Nc2ccc(Cl)c(C(=O)N(C)C)c2O)c(=O)c1=O)C1(C)CC(F)CO1 (stereo partly drawn) [compound 081, 6-chloro-3-((2-(((1S)-(4-fluoro-2-methyltetrahydrofuran-2-yl)(3-methylpyridin-2-yl)methyl)amino)-3,4-dioxocyclobut-l-en-1-yl)amino)-2-hydroxy-N,N-dimethylbenzamide]",669.81,403.32,713.96,–
"Cc1cccnc1C(Nc1c(Nc2ccc(F)c(C(=O)N(C)C)c2O)c(=O)c1=O)[C@@]1(C)CC(F)(F)CO1 (stereo partly drawn) [087B, 3-((2-((((R)-4,4-difluoro-2-methyltetrahydrofuran-2-yl)(3-methylpyridin-2-yl)methyl)amino)-3,4-dioxocyclobut-1-en-1-yl)amino)-6-fluoro-2-hydroxy-N,N-dimethylbenzamide]",567.51,571.31,369.68,–

# Source: patent publication EP4703354A1, “COMPOUND AS CCR6 ANTAGONIST, AND PHARMACEUTICAL COMPOSITION AND USE THEREOF” (Wuhan Createrna Science and Technology Co.,Ltd., priority 2023, dated 2024)
